Assay results from PubChem BioAssay AID222 (DTP/NCI, 2004).
Where “and” joins values, the source holds several entries; their conditions need not be identical. Equal entries are not always repeated. Inconclusive results and toxic doses are left out. The calls were made as follows: active = survival T/C of 150% or more; inactive = T/C below 125% in these data. Starred links: 1 amine or outer side, 2 acyl side, 3 side chain; linkers in the order of their positions; H or OH if unused. Positions of bridges follow the written chain, without caps; N, C: chain ends. Non-standard residues stand in square brackets, D forms with d. Residues, ends and D or L forms follow the SMILES beside them. Chains are numbered I, II in the order given. Actinocin(9to1) = Cc1c2oc3c(C)ccc(C(=O)[*:1])c3nc-2c(C(=O)[*:2])c(N)c1=O; aThr = C[C@H](O)[C@H](N)C(=O)O; NMeV = CN[C@H](C(=O)O)C(C)C; Sar = CNCC(=O)O

Test system: C57BL/6 mice, intracerebral ependymoblastoma, median survival T/C
Test: NCI In Vivo Anticancer Drug Screen. Data for tumor model Ependymoblastoma (intracerebral) in C57BL/6 mice
Conditions: endpoint: median survival time, higher = longer survival
Protocol: The antitumor activity of compounds was measured in mice bearing transplantable tumors. Survival or tumor size were measured and the results are expressed as the measurement made in the treated group (T) divided by the measurement made in the vehicle treated control group (C). The tumor model used in this assay is Ependymoblastoma (intracerebral) in C57BL/6 mice

[1] = dose: 1.0 mg/kg/injection, schedule: Q01DX005 (ip), vehicle: Klucel (hydroxypropylcellulose) (HPC)
[2] = dose: 1.0 mg/kg/injection, schedule: Q01DX005 (ip), vehicle: saline
[3] = dose: 2.0 mg/kg/injection, schedule: Q01DX005 (ip), vehicle: Klucel (hydroxypropylcellulose) (HPC)
[4] = dose: 2.0 mg/kg/injection, schedule: Q01DX005 (ip), vehicle: saline
[5] = dose: 4.0 mg/kg/injection, schedule: Q01DX005 (ip), vehicle: Klucel (hydroxypropylcellulose) (HPC)
[6] = dose: 8.0 mg/kg/injection, schedule: Q01DX001 (ip), vehicle: Klucel (hydroxypropylcellulose) (HPC)
[7] = dose: 8.0 mg/kg/injection, schedule: Q01DX005 (ip), vehicle: Klucel (hydroxypropylcellulose) (HPC)
[8] = dose: 16.0 mg/kg/injection, schedule: Q01DX001 (ip), vehicle: Klucel (hydroxypropylcellulose) (HPC)
[9] = dose: 16.0 mg/kg/injection, schedule: Q01DX005 (ip), vehicle: Klucel (hydroxypropylcellulose) (HPC)
[10] = dose: 32.0 mg/kg/injection, schedule: Q01DX001 (ip), vehicle: Klucel (hydroxypropylcellulose) (HPC)
[11] = dose: 32.0 mg/kg/injection, schedule: Q01DX005 (ip), vehicle: Klucel (hydroxypropylcellulose) (HPC)
[12] = dose: 64.0 mg/kg/injection, schedule: Q01DX001 (ip), vehicle: Klucel (hydroxypropylcellulose) (HPC)
[13] = dose: 128.0 mg/kg/injection, schedule: Q01DX001 (ip), vehicle: Klucel (hydroxypropylcellulose) (HPC)

Measured: T/C

O=C1c2ccccc2C(=O)c2c(NCCNCCO)ccc(NCCNCCO)c21
inactive: dose: 0.5 mg/kg/injection, schedule: Q01DX005 (ip), vehicle: Klucel (hydroxypropylcellulose) (HPC) 104 % of control and 110 % of control | dose: 0.5 mg/kg/injection, schedule: Q01DX005 (ip), vehicle: water 91 % of control and 103 % of control | [1] 102 % of control and 107 % of control | dose: 1.0 mg/kg/injection, schedule: Q01DX005 (ip), vehicle: saline with Tween-80 94 % of control | [2] 94 % of control | dose: 1.0 mg/kg/injection, schedule: Q01DX005 (ip), vehicle: water 105 % of control | dose: 1.0 mg/kg/injection, schedule: Q04DX003 (ip), vehicle: Klucel (hydroxypropylcellulose) (HPC) 113 % of control | dose: 1.0 mg/kg/injection, schedule: Q04DX003 (ip), vehicle: water 103 % of control | [3] 97 % of control and 108 % of control | dose: 2.0 mg/kg/injection, schedule: Q01DX005 (ip), vehicle: saline with Tween-80 100 % of control | [4] 108 % of control | dose: 2.0 mg/kg/injection, schedule: Q01DX005 (ip), vehicle: water 94 % of control and 102 % of control | dose: 2.0 mg/kg/injection, schedule: Q04DX003 (ip), vehicle: Klucel (hydroxypropylcellulose) (HPC) 103 % of control | dose: 2.0 mg/kg/injection, schedule: Q04DX003 (ip), vehicle: water 110 % of control | dose: 4.0 mg/kg/injection, schedule: Q01DX001 (ip), vehicle: Klucel (hydroxypropylcellulose) (HPC) 87 % of control | dose: 4.0 mg/kg/injection, schedule: Q01DX001 (ip), vehicle: water 107 % of control | [5] 98 % of control and 104 % of control | dose: 4.0 mg/kg/injection, schedule: Q01DX005 (ip), vehicle: other 105 % of control | dose: 4.0 mg/kg/injection, schedule: Q01DX005 (ip), vehicle: saline with Tween-80 104 % of control and 109 % of control | dose: 4.0 mg/kg/injection, schedule: Q01DX005 (ip), vehicle: saline 100 % of control | dose: 4.0 mg/kg/injection, schedule: Q01DX005 (ip), vehicle: water 98 % of control and 105 % of control | dose: 4.0 mg/kg/injection, schedule: Q04DX003 (ip), vehicle: Klucel (hydroxypropylcellulose) (HPC) 104 % of control | dose: 4.0 mg/kg/injection, schedule: Q04DX003 (ip), vehicle: water 96 % of control | [6] 95 % of control | dose: 8.0 mg/kg/injection, schedule: Q01DX001 (ip), vehicle: water 101 % of control | [7] 104 % of control and 107 % of control | dose: 8.0 mg/kg/injection, schedule: Q01DX005 (ip), vehicle: other 110 % of control | dose: 8.0 mg/kg/injection, schedule: Q01DX005 (ip), vehicle: saline with Tween-80 115 % of control | dose: 8.0 mg/kg/injection, schedule: Q01DX005 (ip), vehicle: water 106 % of control and 108 % of control | dose: 8.0 mg/kg/injection, schedule: Q04DX003 (ip), vehicle: Klucel (hydroxypropylcellulose) (HPC) 108 % of control | dose: 8.0 mg/kg/injection, schedule: Q04DX003 (ip), vehicle: water 119 % of control | [8] 98 % of control | dose: 16.0 mg/kg/injection, schedule: Q01DX001 (ip), vehicle: water 107 % of control | [9] 110 % of control and 112 % of control | dose: 16.0 mg/kg/injection, schedule: Q01DX005 (ip), vehicle: water 105 % of control | dose: 16.0 mg/kg/injection, schedule: Q04DX003 (ip), vehicle: Klucel (hydroxypropylcellulose) (HPC) 109 % of control | dose: 16.0 mg/kg/injection, schedule: Q04DX003 (ip), vehicle: water 114 % of control | [10] 112 % of control | dose: 32.0 mg/kg/injection, schedule: Q01DX001 (ip), vehicle: water 112 % of control | [11] 93 % of control and 117 % of control | dose: 32.0 mg/kg/injection, schedule: Q04DX003 (ip), vehicle: Klucel (hydroxypropylcellulose) (HPC) 103 % of control | dose: 32.0 mg/kg/injection, schedule: Q04DX003 (ip), vehicle: water 109 % of control | [12] 105 % of control | dose: 64.0 mg/kg/injection, schedule: Q01DX001 (ip), vehicle: water 115 % of control | dose: 64.0 mg/kg/injection, schedule: Q04DX003 (ip), vehicle: Klucel (hydroxypropylcellulose) (HPC) 99 % of control | [13] 98 % of control | dose: 256.0 mg/kg/injection, schedule: Q01DX001 (ip), vehicle: Klucel (hydroxypropylcellulose) (HPC) 104 % of control

CC(CN1CC(=O)NC(=O)C1)N1CC(=O)NC(=O)C1 (stereo unspecified)
inactive: [6] 116 % of control | [7] 91 % of control and 112 % of control | [8] 87 % of control | [9] 110 % of control | [10] 89 % of control and 122 % of control | [11] 105 % of control | [12] 98 % of control and 118 % of control | dose: 64.0 mg/kg/injection, schedule: Q01DX005 (ip), vehicle: Klucel (hydroxypropylcellulose) (HPC) 90 % of control | [13] 95 % of control

ClC1C(Cl)C(Cl)C(Cl)C(Cl)C1Cl (stereo unspecified)
inactive: dose: 45.0 mg/kg/injection, schedule: Q01DX005 (ip), vehicle: saline with Tween-80 96 % of control and 87 % of control | dose: 90.0 mg/kg/injection, schedule: Q01DX005 (ip), vehicle: saline with Tween-80 94 % of control and 98 % of control | dose: 180.0 mg/kg/injection, schedule: Q01DX005 (ip), vehicle: saline with Tween-80 107 % of control | dose: 360.0 mg/kg/injection, schedule: Q01DX005 (ip), vehicle: saline with Tween-80 96 % of control and 103 % of control

O=C1NC2(CCCCC2)C(=O)N1CCN(CCCl)CCCl
inactive: dose: 0.75 mg/kg/injection, schedule: Q01DX009 (ip), vehicle: Klucel (hydroxypropylcellulose) (HPC) 101 % of control | [1] 101 % of control | [2] 105 % of control | dose: 1.5 mg/kg/injection, schedule: Q01DX009 (ip), vehicle: Klucel (hydroxypropylcellulose) (HPC) 100 % of control | [3] 105 % of control | [4] 93 % of control and 108 % of control | dose: 3.0 mg/kg/injection, schedule: Q01DX009 (ip), vehicle: Klucel (hydroxypropylcellulose) (HPC) 106 % of control | [5] 102 % of control | dose: 6.25 mg/kg/injection, schedule: Q01DX005 (ip), vehicle: Klucel (hydroxypropylcellulose) (HPC) 119 % of control | [7] 94 % of control and 107 % of control | dose: 12.5 mg/kg/injection, schedule: Q01DX005 (ip), vehicle: Klucel (hydroxypropylcellulose) (HPC) 114 % of control | [9] 97 % of control | dose: 32.0 mg/kg/injection, schedule: Q01DX005 (ip), vehicle: saline 111 % of control

Cc1c2oc3c(C)ccc(C(=O)N[C@@H]4C(=O)N[C@H](C(C)C)C(=O)N5CCC[C@H]5C(=O)N(C)CC(=O)N(C)[C@@H](C(C)C)C(=O)O[C@H]4C)c3nc-2c(C(=O)N[C@@H]2C(=O)N[C@H](C(C)C)C(=O)N3CCC[C@H]3C(=O)N(C)CC(=O)N(C)[C@@H](C(C)C)C(=O)O[C@H]2C)c(N)c1=O (I: [aThr][dV]P[Sar][NMeV] / II: [aThr][dV]P[Sar][NMeV]; ester I:1-I:C, II:1-II:C; linker I:N-II:N via Actinocin(9to1))
inactive: dose: 12.5 micrograms/kg/injection, schedule: Q01DX005 (ip), vehicle: saline 116 % of control | dose: 25.0 micrograms/kg/injection, schedule: Q01DX005 (ip), vehicle: saline 97 % of control | dose: 50.0 micrograms/kg/injection, schedule: Q01DX005 (ip), vehicle: saline 101 % of control

CC(=O)[C@]1(O)Cc2c(O)c3c(c(O)c2[C@@H](OC2CC(N)C(O)C(C)O2)C1)C(=O)c1c(O)cccc1C3=O (stereo partly specified)
inactive: dose: 7.8 micrograms/kg/injection, schedule: Q01DX005 (ip), vehicle: suspension in saline 102 % of control | dose: 15.6 micrograms/kg/injection, schedule: Q01DX005 (ip), vehicle: suspension in saline 104 % of control | dose: 31.0 micrograms/kg/injection, schedule: Q01DX005 (ip), vehicle: suspension in saline 101 % of control | dose: 62.5 micrograms/kg/injection, schedule: Q01DX005 (ip), vehicle: suspension in saline 99 % of control | dose: 125.0 micrograms/kg/injection, schedule: Q01DX005 (ip), vehicle: suspension in saline 114 % of control
